Results: patent publication US20070049564A1 (Wyeth, priority 2005, published 2007)
≈ marks a conversion by molar mass, not a printed value. Like-named read-outs stand apart in the source and are kept apart here.

Columns and labels:
[1] = tested on: S. pneumoniae* GC 4465; experiment: MIC, broth microdilution; settings: Streptococcus pneumoniae
[2] = tested on: E. coli GC 6465; experiment: MIC, broth microdilution; settings: Escherichia coli
[3] = tested on: E. coli GC 2234; experiment: MIC, broth microdilution; settings: Escherichia coli
[4] = tested on: E. coli GC 2232; experiment: MIC, broth microdilution; settings: Escherichia coli
[5] = tested on: E. coli GC 4559; experiment: MIC, broth microdilution; settings: Escherichia coli
[6] = tested on: Staph. aureus Smith; experiment: In vivo activity (oral, iv; ED50) against Staph. aureus Smith in mice
Experimental: Representative examples of compounds of Formula I were tested for the oral efficacy using S. aureus Smith in mice.

[7] = tested on: S. pneumoniae+ GC 4465; experiment: MIC, broth microdilution; settings: Streptococcus pneumoniae
[8] = tested on: E. coli GC 2231; experiment: MIC, broth microdilution; settings: Escherichia coli
[9] = tested on: E. faecalis GC 2267; experiment: MIC, broth microdilution; settings: Enterococcus faecalis
[10] = tested on: S. aureus GC 4536; experiment: MIC, broth microdilution; settings: Staphylococcus aureus
[11] = tested on: E. coli GC 2272; experiment: MIC, broth microdilution; settings: Escherichia coli
[12] = tested on: E. coli GC 2203; experiment: MIC, broth microdilution; settings: Escherichia coli
Experimental: Antimicrobial susceptibility testing. The in vitro activities of the antibiotics are determined by the broth microdilution method as recommended by the National Committee for Clinical Laboratory Standards (NCCLS) (1). Mueller-Hinton II broth (MHBII)(BBL Cockeysville, Md.) is the medium employed in the testing procedures. Microtiter plates containing serial dilutions of each antimicrobial agent are inoculated with each organism to yield the appropriate density (10^5 CFU/ml) in a 100 μl final volume. The plates are incubated for 18-22 hours at 35° C. in ambient air. […] Standard Pharmacological Test Procedures
Presented in Tables I-XIII are representative compounds of Formula I which were evaluated against a panel of 40 selected gram-positive and gram-negative bacteria strains by pre-incubation in water, mouse serum or human serum. Representative compounds were first incubated in mouse serum for an hour prior to the in vitro testing against a panel of selected gram-positive and gram-negative bacteria strains. All compounds were also pre-incubated in water for an hour prior to testing as control. Representative compounds of Formula I were incubated in human serum prior to MIC determination.

[13] = tested on: S. aureus GC 6466; experiment: MIC, broth microdilution; settings: Staphylococcus aureus
[14] = tested on: S. aureus GC 2216; experiment: MIC, broth microdilution; settings: Staphylococcus aureus
[15] = tested on: E. faecalis GC 2242; experiment: MIC, broth microdilution; settings: Enterococcus faecalis
[16] = tested on: S. epidermidis GC 4935; experiment: MIC, broth microdilution; settings: Staphylococcus epidermidis
[17] = tested on: S. aureus GC 6467; experiment: MIC, broth microdilution; settings: Staphylococcus aureus
[18] = tested on: S. aureus GC 1131; experiment: MIC, broth microdilution; settings: Staphylococcus aureus
[19] = tested on: E. coli GC 4560; experiment: MIC, broth microdilution; settings: Escherichia coli
[20] = tested on: P. aeruginosa GC 2214; experiment: MIC, broth microdilution; settings: Pseudomonas aeruginosa
[21] = read-out: MINIMAL INHIBITORY CONCENTRATION MIC, pre-incubated in Human Serum
[22] = read-out: MINIMAL INHIBITORY CONCENTRATION MIC, pre-incubated in Mouse Serum
[23] = read-out: MINIMAL INHIBITORY CONCENTRATION MIC, pre-incubated in Water

## CN(C)c1cc(NC(=O)CN(C(=O)OCOC(=O)c2ccc(C(C)(C)C)cc2)C(C)(C)C)c(O)c2c1C[C@H]1C[C@H]3[C@H](N(C)C)C(O)=C(C(N)=O)C(=O)[C@@]3(O)C(O)=C1C2=O [Example 43, ({[(2-{[(5aR,6aS,7S,10aS)-9-(aminocarbonyl)-4,7-bis(dimethylamino)-1,8,10a,11-tetrahydroxy-10,12-dioxo-5,5a,6,6a,7,10,10a,12-octahydrotetracen-2-yl]amino}-2-oxoethyl)(tert-butyl)amino]carbonyl}oxy)methyl 4-tert-butylbenzoate]
[1]; [21]
  MIC: 1 mg/L (≈ 1.22 µM)
[1]; [22]
  MIC: < 0.06 mg/L
[1]; [23]
  MIC: 0.5 mg/L (≈ 0.61 µM)
[2]; GC6465, read-out: MINIMAL INHIBITORY CONCENTRATION MIC, pre-incubated in Human Serum
  MIC: > 64 mg/L
[2]; GC6465, read-out: MINIMAL INHIBITORY CONCENTRATION MIC, pre-incubated in Mouse Serum
  MIC: 2 mg/L (≈ 2.44 µM)
[2]; GC6465, read-out: MINIMAL INHIBITORY CONCENTRATION MIC, pre-incubated in Water
  MIC: > 64 mg/L
[3]; GC2234, read-out: MINIMAL INHIBITORY CONCENTRATION MIC, pre-incubated in Human Serum
  MIC: > 64 mg/L
[3]; GC2234, read-out: MINIMAL INHIBITORY CONCENTRATION MIC, pre-incubated in Mouse Serum
  MIC: 0.25 mg/L (≈ 0.305 µM)
[3]; GC2234, read-out: MINIMAL INHIBITORY CONCENTRATION MIC, pre-incubated in Water
  MIC: > 64 mg/L
[4]; GC2232, read-out: MINIMAL INHIBITORY CONCENTRATION MIC, pre-incubated in Human Serum
  MIC: > 64 mg/L
[4]; GC2232, read-out: MINIMAL INHIBITORY CONCENTRATION MIC, pre-incubated in Mouse Serum
  MIC: 0.5 mg/L (≈ 0.61 µM)
[4]; GC2232, read-out: MINIMAL INHIBITORY CONCENTRATION MIC, pre-incubated in Water
  MIC: > 64 mg/L
[5]; GC4559, read-out: MINIMAL INHIBITORY CONCENTRATION MIC, pre-incubated in Human Serum
  MIC: > 64 mg/L
[5]; GC4559, read-out: MINIMAL INHIBITORY CONCENTRATION MIC, pre-incubated in Mouse Serum
  MIC: 0.5 mg/L (≈ 0.61 µM)
[5]; GC4559, read-out: MINIMAL INHIBITORY CONCENTRATION MIC, pre-incubated in Water
  MIC: > 64 mg/L
[6]; Staphylococcus aureus, in Mus musculus, po, read-out: ED50 Staph Smith SOD
  ED50: 12.8 mg/kg
[6]; iv, read-out: ED50 Staph Smith SIV
  ED50: 0.83 mg/kg
[7]; [21]
  MIC: 2 mg/L (≈ 2.44 µM)
[7]; [22]
  MIC: 2 mg/L (≈ 2.44 µM)
[7]; [23]
  MIC: 2 mg/L (≈ 2.44 µM)
[8]; GC2231, read-out: MINIMAL INHIBITORY CONCENTRATION MIC, pre-incubated in Human Serum
  MIC: > 64 mg/L
[8]; GC2231, read-out: MINIMAL INHIBITORY CONCENTRATION MIC, pre-incubated in Mouse Serum
  MIC: 0.5 mg/L (≈ 0.61 µM)
[8]; GC2231, read-out: MINIMAL INHIBITORY CONCENTRATION MIC, pre-incubated in Water
  MIC: > 64 mg/L
[9]; GC2267, read-out: MINIMAL INHIBITORY CONCENTRATION MIC, pre-incubated in Human Serum
  MIC: 4 mg/L (≈ 4.88 µM)
[9]; GC2267, read-out: MINIMAL INHIBITORY CONCENTRATION MIC, pre-incubated in Mouse Serum
  MIC: 0.5 mg/L (≈ 0.61 µM)
[9]; GC2267, read-out: MINIMAL INHIBITORY CONCENTRATION MIC, pre-incubated in Water
  MIC: 32 mg/L (≈ 39 µM)
[10]; GC4536, read-out: MINIMAL INHIBITORY CONCENTRATION MIC, pre-incubated in Human Serum
  MIC: 16 mg/L (≈ 19.5 µM)
[10]; GC4536, read-out: MINIMAL INHIBITORY CONCENTRATION MIC, pre-incubated in Mouse Serum
  MIC: 1 mg/L (≈ 1.22 µM)
[10]; GC4536, read-out: MINIMAL INHIBITORY CONCENTRATION MIC, pre-incubated in Water
  MIC: 32 mg/L (≈ 39 µM)
[11]; GC2272, read-out: MINIMAL INHIBITORY CONCENTRATION MIC, pre-incubated in Human Serum
  MIC: > 64 mg/L
[11]; GC2272, read-out: MINIMAL INHIBITORY CONCENTRATION MIC, pre-incubated in Mouse Serum
  MIC: 0.5 mg/L (≈ 0.61 µM)
[11]; GC2272, read-out: MINIMAL INHIBITORY CONCENTRATION MIC, pre-incubated in Water
  MIC: > 64 mg/L
[12]; GC2203, read-out: MINIMAL INHIBITORY CONCENTRATION MIC, pre-incubated in Human Serum
  MIC: > 64 mg/L
[12]; GC2203, read-out: MINIMAL INHIBITORY CONCENTRATION MIC, pre-incubated in Mouse Serum
  MIC: 0.5 mg/L (≈ 0.61 µM)
[12]; GC2203, read-out: MINIMAL INHIBITORY CONCENTRATION MIC, pre-incubated in Water
  MIC: > 64 mg/L
[13]; GC6466, read-out: MINIMAL INHIBITORY CONCENTRATION MIC, pre-incubated in Human Serum
  MIC: 16 mg/L (≈ 19.5 µM)
[13]; GC6466, read-out: MINIMAL INHIBITORY CONCENTRATION MIC, pre-incubated in Mouse Serum
  MIC: 0.5 mg/L (≈ 0.61 µM)
[13]; GC6466, read-out: MINIMAL INHIBITORY CONCENTRATION MIC, pre-incubated in Water
  MIC: 64 mg/L (≈ 78.1 µM)
[14]; GC2216, read-out: MINIMAL INHIBITORY CONCENTRATION MIC, pre-incubated in Human Serum
  MIC: 32 mg/L (≈ 39 µM)
[14]; GC2216, read-out: MINIMAL INHIBITORY CONCENTRATION MIC, pre-incubated in Mouse Serum
  MIC: 0.5 mg/L (≈ 0.61 µM)
[14]; GC2216, read-out: MINIMAL INHIBITORY CONCENTRATION MIC, pre-incubated in Water
  MIC: 64 mg/L (≈ 78.1 µM)
[15]; GC2242, read-out: MINIMAL INHIBITORY CONCENTRATION MIC, pre-incubated in Human Serum
  MIC: 4 mg/L (≈ 4.88 µM)
[15]; GC2242, read-out: MINIMAL INHIBITORY CONCENTRATION MIC, pre-incubated in Mouse Serum
  MIC: 0.5 mg/L (≈ 0.61 µM)
[15]; GC2242, read-out: MINIMAL INHIBITORY CONCENTRATION MIC, pre-incubated in Water
  MIC: 16 mg/L (≈ 19.5 µM)
[16]; GC4935, read-out: MINIMAL INHIBITORY CONCENTRATION MIC, pre-incubated in Human Serum
  MIC: 4 mg/L (≈ 4.88 µM)
[16]; GC4935, read-out: MINIMAL INHIBITORY CONCENTRATION MIC, pre-incubated in Mouse Serum
  MIC: 2 mg/L (≈ 2.44 µM)
[16]; GC4935, read-out: MINIMAL INHIBITORY CONCENTRATION MIC, pre-incubated in Water
  MIC: 32 mg/L (≈ 39 µM)
[17]; GC6467, read-out: MINIMAL INHIBITORY CONCENTRATION MIC, pre-incubated in Human Serum
  MIC: 32 mg/L (≈ 39 µM)
[17]; GC6467, read-out: MINIMAL INHIBITORY CONCENTRATION MIC, pre-incubated in Mouse Serum
  MIC: 0.5 mg/L (≈ 0.61 µM)
[17]; GC6467, read-out: MINIMAL INHIBITORY CONCENTRATION MIC, pre-incubated in Water
  MIC: > 64 mg/L
[18]; GC1131, read-out: MINIMAL INHIBITORY CONCENTRATION MIC, pre-incubated in Human Serum
  MIC: 16 mg/L (≈ 19.5 µM)
[18]; GC1131, read-out: MINIMAL INHIBITORY CONCENTRATION MIC, pre-incubated in Mouse Serum
  MIC: 1 mg/L (≈ 1.22 µM)
[18]; GC1131, read-out: MINIMAL INHIBITORY CONCENTRATION MIC, pre-incubated in Water
  MIC: 64 mg/L (≈ 78.1 µM)
[19]; GC4560, read-out: MINIMAL INHIBITORY CONCENTRATION MIC, pre-incubated in Human Serum
  MIC: 16 mg/L (≈ 19.5 µM)
[19]; GC4560, read-out: MINIMAL INHIBITORY CONCENTRATION MIC, pre-incubated in Mouse Serum
  MIC: < 0.06 mg/L
[19]; GC4560, read-out: MINIMAL INHIBITORY CONCENTRATION MIC, pre-incubated in Water
  MIC: 32 mg/L (≈ 39 µM)
[20]; GC2214, read-out: MINIMAL INHIBITORY CONCENTRATION MIC, pre-incubated in Human Serum
  MIC: > 64 mg/L
[20]; GC2214, read-out: MINIMAL INHIBITORY CONCENTRATION MIC, pre-incubated in Mouse Serum
  MIC: 16 mg/L (≈ 19.5 µM)
[20]; GC2214, read-out: MINIMAL INHIBITORY CONCENTRATION MIC, pre-incubated in Water
  MIC: > 64 mg/L
